Laboratory results taken from US10987359B2, “Oxadiazepinone derivatives and methods of treating hepatitis B infections” (priority 2016, dated 2021).

tested on: HBV; assay: HBV replication inhibition assay (BDNA assay) in HepG2.2.15 cells; assay type: cell-based; settings: HBV replication assay (BDNA assay), HepG2.2.15 cells; read-out: DNA EC50
Description: HBV replication inhibition by the disclosed compounds were determined in cells infected or transfected with HBV or cells with stably integrated HBV, such as HepG2.2.15 cells (Sells et al. 1987). In this example, HepG2.2.15 cells were maintained in cell culture medium containing 10% fetal bovine serum (FBS), Geneticin, L-glutamine, penicillin and streptomycin. HepG2.2.15 cells were seeded in 96-well plates at a density of 40,000 cells/well and were treated with serially diluted compounds at a final DMSO concentration of 0.5% either alone or in combination by adding drugs in a checker box format. Cells were incubated with compounds for three days, after which medium was removed and fresh medium containing compounds was added to cells and incubated for another three days. At day 6, supernatant was removed and treated with DNase at 37° C. for 60 minutes, followed by enzyme inactivation at 75° C. for 15 minutes. Encapsidated HBV DNA was released from the virions and covalently linked HBV polymerase by incubating in lysis buffer (Affymetrix QS0010) containing 2.5 μg proteinase K at 50° C. for 40 minutes. HBV DNA was denatured by addition of 0.2 M NaOH and detected using a branched DNA (BDNA) QuantiGene assay kit according to manufacturer recommendation (Affymetrix). HBV DNA levels were also quantified using qPCR, based on amplification of encapsidated HBV DNA extraction with QuickExtraction Solution (Epicentre Biotechnologies) and amplification of HBV DNA using HBV specific PCR probes that can hybridize to HBV DNA and a fluorescently labeled probe for quantitation. In addition, cell viability of HepG2.2.15 cells incubated with test compounds alone or in combination was determined by using CellTitre-Glo reagent according to the manufacturer protocol (Promega). The mean background signal from wells containing only culture medium was subtracted from all other samples, and percent inhibition at each compound concentration was calculated by normalizing to signals from HepG2.2.15 cells treated with 0.5% DMSO using equation E1. % inhibition=(DMSOave−Xi)/DMSOave×100% E1: […]
where DMSOave is the mean signal calculated from the wells that were treated with DMSO control (0% inhibition control) and Xi is the signal measured from the individual wells. EC50 values, effective concentrations that achieved 50% inhibitory effect, were determined by non-linear fitting using Graphpad Prism software (San Diego, Calif.) and equation E2: Y=Y min+(Y max−Y min)/(1+10(Log EC50−X)×HillSlope) E2: […]
where Y represents percent inhibition values and X represents the logarithm of compound concentrations.
Selected disclosed compounds were assayed in the HBV replication assay (BDNA assay), as described above, and a representative group of these active compounds is shown in Table 7. […] In Table 7, “A” represents 1<EC50≤100; “B” represents 100<EC50≤500; “C” represents 500<EC50≤1000; and “D” represents EC50>1000.

Which EC50 does the source give for CCN1OC(CO)Cn2nc3c(c2C1=O)CN(C(=O)Nc1ccc(F)c(Cl)c1)CC3 (single isomer, unassigned) [Compound 060_E2, (R*)—N-(3-chloro-4-fluorophenyl)-2-ethyl-4-(hydroxymethyl)-1-oxo-1,4,5,8,9,11-hexahydropyrido[4′,3′:3,4]pyrazolo[5,1-d][1,2,5]oxadiazepine-10(2H)-carboxamide] here?
Its EC50 is 0.001 to 0.1 µM.

For Cc1cc(NC(=O)N2Cc3c(nn4c3C(=O)N(C)OC(CO)C4)C[C@H]2C)ccc1F (single isomer, unassigned) [Compound 083_E2, (4R*,9R)—N-(4-fluoro-3-methylphenyl)-4-(hydroxymethyl)-2,9-dimethyl-1-oxo-1,4,5,8,9,11-hexahydropyrido[4′,3′:3,4]pyrazolo [5,1-d][1,2,5]oxadiazepine-10(2H)-carboxamide], which EC50 is on record?
The EC50 was 0.001 to 0.1 µM.

C[C@@H]1Cc2nn3c(c2CN1C(=O)Nc1ccc(F)c(Cl)c1)C(=O)N(C)OC(CF)C3 (single isomer, unassigned) [Compound 088_E2, (4R*,9R)—N-(3-chloro-4-fluorophenyl)-4-(fluoromethyl)-2,9-dimethyl-1-oxo-1,4,5,8,9,11-hexahydropyrido[4′,3′:3,4]pyrazolo[5,1-d][1,2,5]oxadiazepine-10(2H)-carboxamide] was tested. Which EC50 did it give?
Its EC50 is 0.001 to 0.1 µM.

C[C@@H]1Cc2nn3c(c2CN1C(=O)Nc1ccc(F)c(Br)c1F)C(=O)N(C)OC(CO)C3 (single isomer, unassigned) [Compound 092_E2, (4R*,9R)—N-(3-bromo-2,4-difluorophenyl)-4-(hydroxymethyl)-2,9-dimethyl-1-oxo-1,4,5,8,9,11-hexahydropyrido[4′,3′:3,4]pyrazolo[5,1-d][1,2,5]oxadiazepine-10(2H)-carboxamide] was tested. Which EC50 did it give?
The EC50 was 0.001 to 0.1 µM.

With C[C@@H]1Cc2nn3c(c2CN1C(=O)Nc1cc(Br)c(F)cc1F)C(=O)N(C)OC(COCC(F)F)C3 (single isomer, unassigned) [Compound 108_D1, (4S*,9R)—N-(5-bromo-2,4-difluorophenyl)-4-((2,2-difluoroethoxy)methyl)-2,9-dimethyl-1-oxo-1,4,5,8,9,11-hexahydropyrido[4′,3′:3,4]pyrazolo[5,1-d][1,2,5]oxadiazepine-10(2H)-carboxamide] as the molecule, how does the EC50 read?
Its EC50 is 0.1 to 0.5 µM.

same assay, conditions: Hepatitis B virus, HepG2.2.15, HBV replication assay (BDNA assay), HepG2.2.15 cells; read-out: DNA EC50

How did the EC50 turn out when Cc1cc(NC(=O)N2Cc3c(nn4c3C(=O)N(C)OC(CO)C4)C[C@H]2C)ccc1F (single isomer, unassigned) [Compound 083_E1, (4S*,9R)—N-(4-fluoro-3-methylphenyl)-4-(hydroxymethyl)-2,9-dimethyl-1-oxo-1,4,5,8,9,11-hexahydropyrido[4′,3′:3,4]pyrazolo[5,1-d][1,2,5]oxadiazepine-10(2H)-carboxamide] was run?
The EC50 was 0.001 to 0.1 µM.

How did the EC50 turn out when C[C@@H]1Cc2nn3c(c2CN1C(=O)Nc1ccc(F)c(Cl)c1)C(=O)N(C)OC(CF)C3 (single isomer, unassigned) [Compound 088_E1, (4S*,9R)—N-(3-chloro-4-fluorophenyl)-4-(fluoromethyl)-2,9-dimethyl-1-oxo-1,4,5,8,9,11-hexahydropyrido[4′,3′:3,4]pyrazolo[5,1-d][1,2,5]oxadiazepine-10(2H)-carboxamide] was run?
Its EC50 is 0.001 to 0.1 µM.

Which EC50 does the source give for C[C@@H]1Cc2nn3c(c2CN1C(=O)Nc1ccc(F)c(Br)c1F)C(=O)N(C)OC(CO)C3 (single isomer, unassigned) [Compound 092_E1, (4S*,9R)—N-(3-bromo-2,4-difluorophenyl)-4-(hydroxymethyl)-2,9-dimethyl-1-oxo-1,4,5,8,9,11-hexahydropyrido[4′,3′:3,4]pyrazolo[5,1-d][1,2,5]oxadiazepine-10(2H)-carboxamide] here?
The EC50 was 0.001 to 0.1 µM.

With C[C@@H]1Cc2nn3c(c2CN1C(=O)Nc1ccc(F)c(Cl)c1)C(=O)N(C)OC(CN(C)C)C3 (single isomer, unassigned) [Compound 093_D1, (4S*,9R)—N-(3-chloro-4-fluorophenyl)-4-((dimethylamino)methyl)-2,9-dimethyl-1-oxo-1,4,5,8,9,11-hexahydropyrido[4′,3′:3,4]pyrazolo[5,1-d][1,2,5]oxadiazepine-10(2H)-carboxamide] as the molecule, how does the EC50 read?
Its EC50 is 0.001 to 0.1 µM.
